Legend:
[1] = test system: bile secretion; experiment: Cholagogic action, bile secretion (Experimental Example 5); assay type: in vivo, male Wistar rats; details: intraduodenal
Method: After male Wistar rats 7 weeks old were fasted for 24 hours, they were anesthetized by the interperitoneal administration of 1.25 g/kg (volume 2 m.iota./kg) of urethane. A polyethylene canula (SP-10, a product of Natsume Seisakusho) was inserted into a bile duct and after the bile was caused to flow out for 30 minutes, the bile was collected in the cource of 1 hour. Thereafter, each test drug was suspended or dissolved in a 1% aqueous Tween-80 solution, and was administered into the duodenum at a rate of 5 m.iota./kg. Furthermore, the bile was collected every hour in the course of five hours, and its weight was measured. Only a 1% Tween-80 solution was given as a control.
The results are tabulated in Tables 6, 7, 8, 9 and 10, wherein the bile secretion amount every hour was represented by a percentage with the bile secretion amount (mg) one hour before the dose of the test drug being 100.

[2] = test system: hyperlipemia; experiment: Anti-hyperlipemia test in rats on high fat food (Experimental Example 1); assay type: in vivo, Male Wistar rats; details: peroral once a day, two weeks, control 100, Table 1
From the text: Male Wistar rats 6.5 weeks old were allowed to freely intake a high fat food (containing 1% of cholesterol, 0.5% of sodium cholate, 12% of beef tallow and 20% of standard chow) in the cource of two weeks, to thus cause an outbreak of hyperlipemia. The dose of the drug was started simultaneously with the application of the high fat food, and was perorally given once a day through a stomach tube until the end of the experiment. The drugs were all suspended in a cane sugar fatty acid ester and were administered. The oily compounds were adjusted in advance to 100 mg/m.iota. by diethyl ether. A suitable amount was collected at the time of the dose and after diethyl ether was evaporated and removed, it was suspended in a cane sugar fatty acid ester (1% ryoto sugar ester) and then given. After the final dose of the drug, the rats were fasted for about 18 hours, and the blood was sampled to measure the blood serum lipid. The blood serum lipid was measured by using a TBA-380 biochemical analyzer (a product of Toshiba Medical Co.,) unless a particular hindrance occurred.

[3] = Acute toxicity test; details: mouse, in vivo, ip; male S.P.P. mice, abdominally administered; Table 11
Method: The acute toxicity test was carried out by abdominally administering each test drug to male S.P.P. mice and determining an LD50 value.

[4] = 0-1 hour after dose, control 81.1, Table 9
[5] = 1-2 hour after dose, control 66.6, Table 9
[6] = 2-3 hour after dose, control 55.8, Table 9
[7] = 3-4 hour after dose, control 49.0, Table 9
[8] = 4-5 hour after dose, control 42.8, Table 9

| SMILES | Bile secretion amount, percentage of the hour before dose [1, 4] [%] | Bile secretion amount, percentage of the hour before dose [1, 5] [%] | Bile secretion amount, percentage of the hour before dose [1, 6] [%] | Bile secretion amount, percentage of the hour before dose [1, 7] [%] | Bile secretion amount, percentage of the hour before dose [1, 8] [%] | LD50 [3] [mg/kg] | also measured |
| --- | --- | --- | --- | --- | --- | --- | --- |
| COC(=O)C1=COC(=O)[C@H]2[C@@H]1CC[C@@H]2C [Definite Example 5, methyl (4aS, 7S, 7aR)-1,4a, 5,6,7,7a-hexahydro-7-methyl-1-oxocyclopenta[c]pyran-4-carboxylate] | 105.0 | 78.0 | 62.0 | 52.6 | 45.1 | – | – |
| COC(=O)C1=COC(=O)[C@@H]2C(CO)=CC[C@H]12 [Definite Example 20, methyl (4aS, 7aS)-1,4a, 5,7a-tetrahydro-7-(hydroxymethyl)-1-oxocyclopenta[c]pyran-4-carboxylate] | 82.6 | 66.8 | 55.1 | 48.6 | 42.8 | – | – |
| COC(=O)C1=COC(O)[C@@H]2[C@@H](CO)CC[C@H]12 (stereo partly drawn) [Definite Example 6, methyl (4aS, 7S, 7aS)-1,4a, 5,6,7,7a-hexahydro-1-hydroxy-7-(hydroxymethyl)cyclopenta[c]pyran-4-carboxylate] | – | – | – | – | – | 406 | Bile secretion amount, percentage of the hour before dose ([1]; 0-1 hour after dose, control 84.1, Table 8): 111.4%; Bile secretion amount, percentage of the hour before dose ([1]; 1-2 hour after dose, control 72.5, Table 8): 78.0%; Bile secretion amount, percentage of the hour before dose ([1]; 2-3 hour after dose, control 63.8, Table 8): 66.7%; Bile secretion amount, percentage of the hour before dose ([1]; 3-4 hour after dose, control 56.7, Table 8): 55.2%; Bile secretion amount, percentage of the hour before dose ([1]; 4-5 hour after dose, control 51.2, Table 8): 50.3%; Blood serum cholesterol (%) ([2]; 10 mg/kg): 79.6%; Blood serum triglyceride (%) ([2]; 10 mg/kg): 86.7%; Blood serum cholesterol (%) ([2]; 30 mg/kg): 85.4%; Blood serum triglyceride (%) ([2]; 30 mg/kg): 80.4% |
| OCC1=CC[C@@H]2C(CO)=CO[C@@H](OC3CCCCO3)[C@H]12 (stereo partly drawn) [Definite Example 17, (1S, 4aS, 7aS)-4,7-bis (hydroxymethyl)-1,4a, 5,7a-tetrahydro-1-(2-tetrahydropyranyloxy)cyclopenta[c]pyran] | – | – | – | – | – | – | Bile secretion amount, percentage of the hour before dose ([1]; 0-1 hour after dose, control 82.9, Table 10): 115.7%; Bile secretion amount, percentage of the hour before dose ([1]; 1-2 hour after dose, control 74.1, Table 10): 77.3%; Bile secretion amount, percentage of the hour before dose ([1]; 2-3 hour after dose, control 66.1, Table 10): 62.9%; Bile secretion amount, percentage of the hour before dose ([1]; 3-4 hour after dose, control 59.8, Table 10): 54.0%; Bile secretion amount, percentage of the hour before dose ([1]; 4-5 hour after dose, control 53.3, Table 10): 47.2% |
| COC(=O)C1=CO[C@@H](OC2CCCCO2)[C@@H]2C(CO)=CC[C@H]12 (single isomer, unassigned) [Definite Example 16] | – | – | – | – | – | 412 | – |
| COC(=O)C1=COC(=O)[C@@H]2C(CO[Si](c3ccccc3)(c3ccccc3)C(C)(C)C)=CC[C@H]12 [Definite Example 28, methyl (4aS, 7aS)-7-[(tert-butyldiphenylsilyloxy)methyl]-1,4a, 5,7a-tetrahydro-1-oxocyclopenta[c]pyran-4-carboxylate] | – | – | – | – | – | 406 | – |
| COC(=O)C1=CO[C@@H](O[C@@H]2O[C@H](COC(C)=O)[C@@H](OC(C)=O)[C@H](OC(C)=O)[C@H]2OC(C)=O)[C@@H]2C(C)=CC[C@H]12 [Definite Example 7, methyl (1S, 4aS, 7aS)-1-(2,3,4,6-tetra-O-acetyl-β-D-glucopyranosyloxy)-1,4a, 5,7a-tetrahydro-7-methylcyclopenta[c]pyran-4-carboxylate] | – | – | – | – | – | 382 | Blood serum cholesterol (%) ([2]; 10 mg/kg): 94.4%; Blood serum triglyceride (%) ([2]; 10 mg/kg): 96.9%; Blood serum cholesterol (%) ([2]; 30 mg/kg): 105%; Blood serum triglyceride (%) ([2]; 30 mg/kg): 64.6% |
| COC(=O)C1=CO[C@@H](O[C@@H]2O[C@H](CO)[C@@H](O)[C@H](O)[C@H]2O)[C@@H]2C(C)=CC[C@H]12 [Definite Example 8, methyl (1S, 4aS, 7aS)-1-(β-D-glucopyranosyloxy)-1,4a, 5,7a-tetrahydro-7-methylcyclopenta[c]pyran-4-carboxylate] | 85.0 | 71.7 | 60.1 | 50.6 | 44.4 | – | Blood serum cholesterol (%) ([2]; 10 mg/kg): 94.4%; Blood serum triglyceride (%) ([2]; 10 mg/kg): 82.5%; Blood serum cholesterol (%) ([2]; 30 mg/kg): 54.8%; Blood serum triglyceride (%) ([2]; 30 mg/kg): 68.7% |
| OCC1=CC[C@@H]2C(CO)=CO[C@@H](OC3CCCCO3)[C@H]12 (stereo partly drawn) [Definite Example 18, (1S, 4aS, 7aS)-4,7-bis(hydroxymethyl)-1,4a, 5,7a-tetrahydro-1-(2-tetrahydropyranyloxy)cyclopenta[c]pyran] | 91.3 | 74.6 | 60.3 | 51.1 | 44.1 | 559 | – |
| CC(C)(C)[Si](C)(C)OCC1=CC[C@@H]2C(CO)=CO[C@@H](O[Si](C)(C)C(C)(C)C)[C@H]12 [Definite Example 34, (1S, 4aS, 7aS)-1-(tert-butyldimethylsilyloxy)-7-[(tert-butyldimethylsilyloxy)methyl]-1,4a, 5,7a-tetrahydro-4-(hydroxymethyl)cyclopenta[c]pyran] | – | – | – | – | – | 511 | – |
| COC(=O)C1=COC2OCC3CCC1C32 [Definite Example 12, methyl (iS, 4aS, 7R, 7aS)-1,7-(epoxymethano)-1,4a, 5,6,7,7a-hexahydrocyclopenta[c]pyran-4-carboxylate] | – | – | – | – | – | 527 | – |
| COC(=O)C1=COC(=O)[C@@H]2C(CO[Si](C)(C)C(C)(C)C)=CC[C@H]12 [Definite Example 19] | – | – | – | – | – | 355 | – |
| COC(=O)C1=COC(O)[C@H]2[C@@H]1CC1OC12C (stereo partly drawn) [Definite Example 35, methyl (4aS, 7aS)-6,7-epoxy-1,4a,5,6,7,7a-hexahydro-1-hydroxy-7-methylcyclopenta[c]pyran-4-carboxylate] | – | – | – | – | – | – | Bile secretion amount, percentage of the hour before dose ([1]; 0-1 hour after dose, control 87.7, Table 7): 110.4%; Bile secretion amount, percentage of the hour before dose ([1]; 1-2 hour after dose, control 75.3, Table 7): 85.2%; Bile secretion amount, percentage of the hour before dose ([1]; 2-3 hour after dose, control 65.0, Table 7): 71.4%; Bile secretion amount, percentage of the hour before dose ([1]; 3-4 hour after dose, control 58.7, Table 7): 61.1%; Bile secretion amount, percentage of the hour before dose ([1]; 4-5 hour after dose, control 51.8, Table 7): 53.5% |
